Experimental data reported in ChEMBL document CHEMBL1926681, “Novel inhibitors of epidermal growth factor receptor: (4-(Arylamino)-7H-pyrrolo[2,3-d]pyrimidin-6-yl)(1H-indol-2-yl)methanones and (1H-indol-2-yl)(4-(phenylamino)thieno[2,3-d]pyrimidin-6-yl)methanones” (Bioorg Med Chem, 2012).
Active and inactive are the calls of the source. The calls are words filed in the database; no cut-off is given here.

Assays:
[1] = Cytotoxicity against human PAXF 546L cells after 4 days by propidium iodide staining-based fluorometric analysis; type: functional, cell-based; details: 96 h
MCF7 = test: Cytotoxicity against human MCF7 cells after 4 days by propidium iodide staining-based fluorometric analysis; type: functional, cell-based; details: MCF7, 96 h
[2] = Cytotoxicity against human RXF 1781L cells after 4 days by propidium iodide staining-based fluorometric analysis; type: functional, cell-based; details: 96 h
SAOS-2 = test: Cytotoxicity against human Saos2 cells after 4 days by propidium iodide staining-based fluorometric analysis; type: functional, cell-based; details: SAOS-2, 96 h, read-out: IC50
[3] = Cytotoxicity against human PXF 698L cells after 4 days by propidium iodide staining-based fluorometric analysis; type: functional, cell-based; details: 96 h
[4] = Cytotoxicity against human RXF 393NL cells after 4 days by propidium iodide staining-based fluorometric analysis; type: functional, cell-based; details: 96 h
[5] = Cytotoxicity against human MEXF 1341L cells after 4 days by propidium iodide staining-based fluorometric analysis; type: functional, cell-based; details: 96 h
[6] = Cytotoxicity against human DIFI cells after 4 days by propidium iodide staining-based fluorometric analysis; type: functional, cell-based; details: 96 h
TE-671 = test: Cytotoxicity against human TE671 cells after 4 days by propidium iodide staining-based fluorometric analysis; type: functional, cell-based; details: TE-671, 96 h
[7] = Cytotoxicity against human LXFA 629L cells after 4 days by propidium iodide staining-based fluorometric analysis; type: functional, cell-based; details: 96 h
[8] = Cytotoxicity against human MAXF 401NL cells after 4 days by propidium iodide staining-based fluorometric analysis; type: functional, cell-based; details: 96 h
[9] = target: Tyrosine-protein kinase ABL1 (Homo sapiens) (UniProt P00519); test: Inhibition of ABL1 using poly(Ala, Glu, Lys, Tyr) as substrate and [gamma33P]ATP at 1 uM after 60 mins by scintillation counting
Chain of Tyrosine-protein kinase ABL1 (Homo sapiens) (P00519 whole entry): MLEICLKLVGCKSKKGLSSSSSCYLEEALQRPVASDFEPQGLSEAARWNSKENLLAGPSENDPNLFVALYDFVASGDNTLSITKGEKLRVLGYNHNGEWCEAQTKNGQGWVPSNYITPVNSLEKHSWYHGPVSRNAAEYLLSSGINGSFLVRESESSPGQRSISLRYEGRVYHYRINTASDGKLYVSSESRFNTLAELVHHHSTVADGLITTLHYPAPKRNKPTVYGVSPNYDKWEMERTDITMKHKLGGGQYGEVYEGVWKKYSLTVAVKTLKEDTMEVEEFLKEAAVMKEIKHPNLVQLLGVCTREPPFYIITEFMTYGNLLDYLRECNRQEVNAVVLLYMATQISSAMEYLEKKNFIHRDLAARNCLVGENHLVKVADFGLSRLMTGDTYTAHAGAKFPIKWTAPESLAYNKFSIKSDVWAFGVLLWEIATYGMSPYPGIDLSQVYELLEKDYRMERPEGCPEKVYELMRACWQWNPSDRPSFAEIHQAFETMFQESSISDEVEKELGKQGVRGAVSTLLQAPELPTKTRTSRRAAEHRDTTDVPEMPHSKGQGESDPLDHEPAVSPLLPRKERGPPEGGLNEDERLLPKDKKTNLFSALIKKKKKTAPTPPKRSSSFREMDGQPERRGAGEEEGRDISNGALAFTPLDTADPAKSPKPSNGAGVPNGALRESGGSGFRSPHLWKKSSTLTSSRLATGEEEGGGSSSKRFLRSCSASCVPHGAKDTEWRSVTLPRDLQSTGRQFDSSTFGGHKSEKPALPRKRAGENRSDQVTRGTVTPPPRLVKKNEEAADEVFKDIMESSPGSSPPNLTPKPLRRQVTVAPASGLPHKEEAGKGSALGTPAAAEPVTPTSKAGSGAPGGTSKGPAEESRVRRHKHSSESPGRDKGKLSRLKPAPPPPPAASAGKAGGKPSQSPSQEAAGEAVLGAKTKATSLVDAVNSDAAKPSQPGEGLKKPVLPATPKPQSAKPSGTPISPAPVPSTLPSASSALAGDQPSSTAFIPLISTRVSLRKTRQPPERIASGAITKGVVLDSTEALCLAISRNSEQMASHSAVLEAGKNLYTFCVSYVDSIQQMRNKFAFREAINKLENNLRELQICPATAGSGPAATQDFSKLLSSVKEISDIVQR

RKO = test: Cytotoxicity against human RKO cells after 4 days by propidium iodide staining-based fluorometric analysis; type: functional, cell-based; details: 96 h
[10] = Cytotoxicity against human PXF 1118L cells after 4 days by propidium iodide staining-based fluorometric analysis; type: functional, cell-based; details: 96 h
[11] = target: Vascular endothelial growth factor receptor 2 (Homo sapiens) (UniProt P35968); test: Inhibition of VEGFR2 using poly(Glu,Tyr)4:1 as substrate and [gamma33P]ATP at 1 uM after 60 mins by scintillation counting
Chain of Vascular endothelial growth factor receptor 2 (Homo sapiens) (P35968 whole entry): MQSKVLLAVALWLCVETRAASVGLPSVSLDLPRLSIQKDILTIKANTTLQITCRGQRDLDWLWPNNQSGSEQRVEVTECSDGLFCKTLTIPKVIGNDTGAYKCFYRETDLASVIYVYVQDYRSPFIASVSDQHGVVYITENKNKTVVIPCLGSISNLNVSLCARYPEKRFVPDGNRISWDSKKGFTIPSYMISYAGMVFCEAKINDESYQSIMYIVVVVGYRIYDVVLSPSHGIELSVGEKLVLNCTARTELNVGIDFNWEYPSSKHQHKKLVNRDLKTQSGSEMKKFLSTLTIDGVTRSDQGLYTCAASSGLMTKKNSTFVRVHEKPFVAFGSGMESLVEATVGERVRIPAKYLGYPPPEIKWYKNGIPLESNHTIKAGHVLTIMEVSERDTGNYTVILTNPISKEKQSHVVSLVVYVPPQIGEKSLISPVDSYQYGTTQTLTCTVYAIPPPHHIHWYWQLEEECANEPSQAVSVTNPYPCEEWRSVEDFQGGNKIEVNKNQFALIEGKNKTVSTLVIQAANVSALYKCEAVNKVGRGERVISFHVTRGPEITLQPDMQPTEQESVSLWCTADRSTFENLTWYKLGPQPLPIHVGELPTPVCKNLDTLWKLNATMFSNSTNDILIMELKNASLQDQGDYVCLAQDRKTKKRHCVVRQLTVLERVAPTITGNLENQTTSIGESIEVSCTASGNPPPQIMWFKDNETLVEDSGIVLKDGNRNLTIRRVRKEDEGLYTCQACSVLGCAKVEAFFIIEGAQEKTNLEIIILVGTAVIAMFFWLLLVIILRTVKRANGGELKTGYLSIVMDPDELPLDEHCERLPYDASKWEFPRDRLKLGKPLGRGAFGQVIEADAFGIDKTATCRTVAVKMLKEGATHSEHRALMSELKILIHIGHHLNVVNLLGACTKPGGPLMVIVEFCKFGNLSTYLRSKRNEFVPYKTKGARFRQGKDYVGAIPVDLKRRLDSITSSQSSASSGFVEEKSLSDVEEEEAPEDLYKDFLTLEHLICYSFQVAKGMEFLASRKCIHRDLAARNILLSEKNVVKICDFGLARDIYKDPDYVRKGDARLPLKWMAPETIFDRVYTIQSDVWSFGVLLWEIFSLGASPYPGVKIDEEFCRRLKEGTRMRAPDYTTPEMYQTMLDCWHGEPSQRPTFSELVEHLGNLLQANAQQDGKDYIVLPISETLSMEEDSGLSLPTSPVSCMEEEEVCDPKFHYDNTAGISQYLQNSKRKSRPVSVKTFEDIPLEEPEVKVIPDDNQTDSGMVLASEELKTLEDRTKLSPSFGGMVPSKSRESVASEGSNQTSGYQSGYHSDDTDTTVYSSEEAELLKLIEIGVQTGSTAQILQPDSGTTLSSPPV

[12] = Cytotoxicity against human BXF 1218L cells after 4 days by propidium iodide staining-based fluorometric analysis; type: functional, cell-based; details: 96 h
MKN-45 = test: Cytotoxicity against human MKN45 cells after 4 days by propidium iodide staining-based fluorometric analysis; type: functional, cell-based; details: MKN-45, 96 h
CWR22R = test: Cytotoxicity against human 22Rv1 cells after 4 days by propidium iodide staining-based fluorometric analysis; type: functional, cell-based; details: 22Rv1, 96 h
[13] = Cytotoxicity against human UXF 1138L cells after 4 days by propidium iodide staining-based fluorometric analysis; type: functional, cell-based; details: 96 h
[14] = target: Receptor tyrosine-protein kinase erbB-2 (Homo sapiens) (UniProt P04626); test: Inhibition of Erbb2 using poly(Glu,Tyr)4:1 as substrate and [gamma33P]ATP at 1 uM after 60 mins by scintillation counting
Chain of Receptor tyrosine-protein kinase erbB-2 (Homo sapiens) (P04626 whole entry): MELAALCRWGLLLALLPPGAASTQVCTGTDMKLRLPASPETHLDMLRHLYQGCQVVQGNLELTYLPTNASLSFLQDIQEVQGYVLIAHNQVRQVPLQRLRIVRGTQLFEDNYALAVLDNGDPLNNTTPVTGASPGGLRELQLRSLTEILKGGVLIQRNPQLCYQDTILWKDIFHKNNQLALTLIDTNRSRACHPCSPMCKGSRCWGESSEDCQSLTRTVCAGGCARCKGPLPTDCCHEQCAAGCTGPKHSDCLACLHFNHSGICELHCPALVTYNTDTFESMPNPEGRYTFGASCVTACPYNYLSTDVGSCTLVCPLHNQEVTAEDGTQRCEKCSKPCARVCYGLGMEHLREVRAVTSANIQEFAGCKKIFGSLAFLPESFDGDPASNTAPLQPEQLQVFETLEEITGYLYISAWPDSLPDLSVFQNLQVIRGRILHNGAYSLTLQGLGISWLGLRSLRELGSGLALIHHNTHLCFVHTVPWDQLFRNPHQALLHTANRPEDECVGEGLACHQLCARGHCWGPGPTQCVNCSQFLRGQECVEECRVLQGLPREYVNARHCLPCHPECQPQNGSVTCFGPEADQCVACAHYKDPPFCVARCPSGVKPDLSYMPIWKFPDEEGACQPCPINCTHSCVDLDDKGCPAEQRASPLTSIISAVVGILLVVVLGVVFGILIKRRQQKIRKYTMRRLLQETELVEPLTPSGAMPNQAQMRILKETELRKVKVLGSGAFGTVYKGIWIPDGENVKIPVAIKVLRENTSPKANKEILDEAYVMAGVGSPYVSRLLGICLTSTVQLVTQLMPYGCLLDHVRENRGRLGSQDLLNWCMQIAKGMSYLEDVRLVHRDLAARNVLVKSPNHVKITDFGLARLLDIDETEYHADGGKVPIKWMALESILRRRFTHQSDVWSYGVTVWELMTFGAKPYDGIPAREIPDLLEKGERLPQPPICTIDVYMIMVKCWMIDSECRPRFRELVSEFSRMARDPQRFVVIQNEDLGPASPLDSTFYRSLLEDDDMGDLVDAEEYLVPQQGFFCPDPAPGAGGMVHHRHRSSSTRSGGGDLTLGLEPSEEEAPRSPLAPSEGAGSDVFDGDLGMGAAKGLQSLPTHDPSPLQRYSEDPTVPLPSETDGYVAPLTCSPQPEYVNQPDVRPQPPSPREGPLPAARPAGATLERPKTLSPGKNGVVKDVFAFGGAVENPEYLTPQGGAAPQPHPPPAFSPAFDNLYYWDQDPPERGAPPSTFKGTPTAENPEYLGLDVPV

DU-145 = test: Cytotoxicity against human DU145 cells after 4 days by propidium iodide staining-based fluorometric analysis; type: functional, cell-based; details: DU-145, 96 h
[15] = Cytotoxicity against human MEXF 276L cells after 4 days by propidium iodide staining-based fluorometric analysis; type: functional, cell-based; details: MEXF276L, 96 h
[16] = Cytotoxicity against human PXF 1752L cells after 4 days by propidium iodide staining-based fluorometric analysis; type: functional, cell-based; details: 96 h
[17] = target: Hepatocyte growth factor receptor (Homo sapiens) (UniProt P08581); test: Inhibition of MET using poly(Ala, Glu, Lys, Tyr) as substrate and [gamma33P]ATP at 1 uM after 60 mins by scintillation counting
[18] = target: T1, Epidermal growth factor receptor (Homo sapiens, UniProt P00533); test: Inhibition of EGFR using poly(Glu,Tyr)4:1 as substrate and [gamma33P]ATP at 1 uM after 60 mins by scintillation counting
T1 sequence (P00533 whole entry): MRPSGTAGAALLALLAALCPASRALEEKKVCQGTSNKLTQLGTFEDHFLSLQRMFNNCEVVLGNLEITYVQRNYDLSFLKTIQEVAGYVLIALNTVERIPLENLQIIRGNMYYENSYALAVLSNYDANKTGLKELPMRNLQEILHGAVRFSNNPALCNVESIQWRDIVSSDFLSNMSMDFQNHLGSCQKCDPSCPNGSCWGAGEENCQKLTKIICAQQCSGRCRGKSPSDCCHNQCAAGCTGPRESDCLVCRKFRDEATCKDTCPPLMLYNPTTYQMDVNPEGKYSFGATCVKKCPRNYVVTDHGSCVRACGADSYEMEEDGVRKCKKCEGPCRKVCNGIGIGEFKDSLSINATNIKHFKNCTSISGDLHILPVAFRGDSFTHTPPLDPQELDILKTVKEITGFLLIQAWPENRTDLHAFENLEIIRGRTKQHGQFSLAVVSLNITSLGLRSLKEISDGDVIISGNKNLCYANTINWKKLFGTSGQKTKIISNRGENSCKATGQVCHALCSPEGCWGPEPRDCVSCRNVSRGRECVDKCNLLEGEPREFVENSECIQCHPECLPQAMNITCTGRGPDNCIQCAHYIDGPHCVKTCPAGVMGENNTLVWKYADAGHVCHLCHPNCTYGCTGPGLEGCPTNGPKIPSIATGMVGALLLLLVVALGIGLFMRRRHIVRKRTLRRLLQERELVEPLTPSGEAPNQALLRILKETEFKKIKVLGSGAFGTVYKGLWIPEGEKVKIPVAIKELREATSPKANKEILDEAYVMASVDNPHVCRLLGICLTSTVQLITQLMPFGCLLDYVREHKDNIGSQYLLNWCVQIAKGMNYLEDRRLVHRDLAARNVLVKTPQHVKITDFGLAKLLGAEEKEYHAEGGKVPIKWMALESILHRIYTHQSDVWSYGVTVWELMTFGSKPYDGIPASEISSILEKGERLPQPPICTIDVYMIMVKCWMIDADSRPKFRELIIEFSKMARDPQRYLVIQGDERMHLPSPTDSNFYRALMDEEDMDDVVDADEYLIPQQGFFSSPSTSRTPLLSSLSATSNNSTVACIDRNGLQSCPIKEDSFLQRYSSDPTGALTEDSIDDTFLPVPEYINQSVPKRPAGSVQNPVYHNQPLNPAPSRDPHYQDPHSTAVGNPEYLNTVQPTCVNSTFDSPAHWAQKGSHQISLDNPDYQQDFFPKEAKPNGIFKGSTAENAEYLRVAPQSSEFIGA

[19] = Cytotoxicity against human LXFL 529L cells after 4 days by propidium iodide staining-based fluorometric analysis; type: functional, cell-based; details: 96 h
[20] = Cytotoxicity against human GXF251L cells after 4 days by propidium iodide staining-based fluorometric analysis; type: functional, cell-based; details: GXF 251L, 96 h
[21] = Cytotoxicity against human LXFA 289L cells after 4 days by propidium iodide staining-based fluorometric analysis; type: functional, cell-based; details: 96 h
OVCAR-3 = test: Cytotoxicity against human OVCAR3 cells after 4 days by propidium iodide staining-based fluorometric analysis; type: functional, cell-based; details: OVCAR-3, 96 h
LNCaP = test: Cytotoxicity against human LNCAP cells after 4 days by propidium iodide staining-based fluorometric analysis; type: functional, cell-based; details: 96 h
[22] = Cytotoxicity against human BXF T24 cells after 4 days by propidium iodide staining-based fluorometric analysis; type: functional, cell-based; details: T-24, 96 h
[23] = Cytotoxicity against human CXF 269L cells after 4 days by propidium iodide staining-based fluorometric analysis; type: functional, cell-based; details: 96 h
[24] = Cytotoxicity against human MDA231 cells after 4 days by propidium iodide staining-based fluorometric analysis; type: functional, cell-based; details: MDA-MB-231, 96 h
HCT-116 = test: Cytotoxicity against human HCT116 cells after 4 days by propidium iodide staining-based fluorometric analysis; type: functional, cell-based; details: HCT-116, 96 h
CAL-27 = test: Cytotoxicity against human CAL27 cells after 4 days by propidium iodide staining-based fluorometric analysis; type: functional, cell-based; details: CAL-27, 96 h
PANC-1 = test: Cytotoxicity against human PANC1 cells after 4 days by propidium iodide staining-based fluorometric analysis; type: functional, cell-based; details: PANC-1, 96 h
NCI-H460 = test: Cytotoxicity against human H460 cells after 4 days by propidium iodide staining-based fluorometric analysis; type: functional, cell-based; details: NCI-H460, 96 h
[25] = Cytotoxicity against human OVXF 899L cells after 4 days by propidium iodide staining-based fluorometric analysis; type: functional, cell-based; details: 96 h
[26] = Cytotoxicity against human LXFL 1121L cells after 4 days by propidium iodide staining-based fluorometric analysis; type: functional, cell-based; details: 96 h
[27] = target: T1, Epidermal growth factor receptor; test: Inhibition of EGFR using poly(Glu,Tyr)4:1 as substrate and [gamma33P]ATP after 60 mins by scintillation counting
HT-29 = test: Cytotoxicity against human HT-29 cells after 4 days by propidium iodide staining-based fluorometric analysis; type: functional, cell-based; details: HT-29, 96 h
[28] = Cytotoxicity against human PAXF 1657L cells after 4 days by propidium iodide staining-based fluorometric analysis; type: functional, cell-based; details: 96 h
[29] = Cytotoxicity against human PC3M cells after 4 days by propidium iodide staining-based fluorometric analysis; type: functional, cell-based; details: PC-3M, 96 h
[30] = Cytotoxicity against human BXF 1352L cells after 4 days by propidium iodide staining-based fluorometric analysis; type: functional, cell-based; details: 96 h
[31] = Cytotoxicity against human LXFA 526L cells after 4 days by propidium iodide staining-based fluorometric analysis; type: functional, cell-based; details: 96 h
[32] = Cytotoxicity against human MEXF 462NL cells after 4 days by propidium iodide staining-based fluorometric analysis; type: functional, cell-based; details: 96 h
[33] = Cytotoxicity against human RXF 486L cells after 4 days by propidium iodide staining-based fluorometric analysis; type: functional, cell-based; details: 96 h
[34] = Cytotoxicity against human LIXF 575L cells after 4 days by propidium iodide staining-based fluorometric analysis; type: functional, cell-based; details: 96 h

SMILES: O=C(c1cc2ccccc2[nH]1)c1cc2c(Nc3ccc(F)c(Cl)c3)ncnc2s1
- IC50 [1]: 11.6 µM
- IC50 (MCF7): 6.96 µM
- IC50 [2]: 9.05 µM
- IC50 (SAOS-2): 11.4 µM
- IC50 [3]: 14.3 µM
- IC50 [4]: 11.8 µM
- IC50 [5]: 10.8 µM
- IC50 [6]: 1.39 µM
- IC50 (TE-671): 14.1 µM
- IC50 [7]: 4.88 µM
- IC50 [8]: 3.89 µM
- inhibition [9]: inactive
- IC50 (RKO): 7.29 µM
- IC50 [10]: 17.9 µM
- inhibition [11]: 15%
- IC50 [12]: 9.13 µM
- IC50 (MKN-45): 12.5 µM
- IC50 (CWR22R): 5.48 µM
- IC50 [13]: 4.42 µM
- inhibition [14]: 80%
- IC50 (DU-145): 4.36 µM
- IC50 [15]: 10.2 µM
- IC50 [16]: 13.5 µM
- inhibition [17]: inactive
- inhibition [18]: 100%
- IC50 [19]: 8.61 µM
- IC50 [20]: 2.76 µM
- IC50 [21]: 6.68 µM
- IC50 (OVCAR-3): 8.45 µM
- IC50 (LNCaP): 6.11 µM
- IC50 [22]: 11.4 µM
- IC50 [23]: 10.8 µM
- IC50 [24]: 8.04 µM
- IC50 (HCT-116): 8.39 µM
- IC50 (CAL-27): 2.61 µM
- IC50 (PANC-1): 7.01 µM
- IC50 (NCI-H460): 5.82 µM
- IC50 [25]: 5.56 µM
- IC50 [26]: 9.77 µM
- IC50 [27]: 0.00554 µM
- IC50 (HT-29): 7.83 µM
- IC50 [28]: 17.6 µM
- IC50 [29]: 5.77 µM
- IC50 [30]: 11.3 µM
- IC50 [31]: 10.7 µM
- IC50 [32]: 8.11 µM
- IC50 [33]: 5.5 µM
- IC50 [34]: 8.15 µM
